Test results taken from article PMC11861159, “Design, synthesis, and in vitro, in vivo, and in silico evaluation of novel substituted 1,3,4-thiadiazole derivatives as anticonvulsant agents” (Frontiers in Chemistry, 2025).

Assays:
[1] = biological target: T1, human carbonic anhydrase IX (Homo sapiens, UniProt Q16790); experiment: Human carbonic anhydrase IX colorimetric (p-nitrophenyl acetate) inhibition assay; assay type: biochemical; settings: mean ± SEM, three independent experiments in triplicate; read-out: CA IX (IC50)
T1 construct: purchased Sino Biological Inc, Beijing, China
Description: (§1) In brief, the reaction mixture contained 60 μL of 50 mM Tris-sulfate buffer (pH 7.6, containing 0.1 mM ZnCl2),10 μL (0.5 mM) of the test compound in 1% DMSO, and 10 μL of human carbonic anhydrase II and IX (Sino Biological Inc, Beijing, China). All the ingredients were mixed well and pre-incubated at 25°C for 10 min. Substrate p-nitrophenyl acetate was prepared as a 6 mM stock solution using 5% of acetonitrile in buffer and was used fresh. […] The total assay volume was adjusted to 100 μL and further incubated at 37°C for 30 min. Furthermore, all the ingredients were mixed properly, and absorbance was measured. […] The results reported are the mean of triplicate experiments (±SEM) and expressed IC50 values, which were calculated.

[2] = test system: MES-induced seizures; experiment: Maximal electroshock-induced seizure (MES) test; assay type: in vivo, male Swiss albino mice; settings: for Minimum active dose (mg/kg) MES 0.5 h / Minimum active dose (mg/kg) MES 4 h: oral, lowest dose active in half or more of the mice, n = 6;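 as to % protection MES 0.5 h: percent reduction of the test group versus the control group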;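 as to % protection MES 4 h: percent reduction of the test group versus the control group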
[3] = biological target: T2, human carbonic anhydrase II (Homo sapiens, UniProt P00918); experiment: Human carbonic anhydrase II colorimetric (p-nitrophenyl acetate) inhibition assay; assay type: biochemical; settings: mean ± SEM, three independent experiments in triplicate; read-out: CA II (IC50)
T2 construct: purchased Sino Biological Inc, Beijing, China
Description: as §1

[4] = test system: induced seizures; experiment: Anticonvulsant screening (MES and sc-PTZ), outcome recovery/death
Description: The test compounds and the standard drugs were dissolved in a 0.9% NaCl solution.
After half an hour of p.o. administration of the standard and the tested compounds, an electro-convulsometer (Outus, Ambala Cantt, India) delivered an electrical stimulus of sufficient intensity (25 mA, 500 V, 50 Hz, 0.2 s) via auricular electrodes to induce maximal seizures (Figure 1). To avoid the animal’s death, a drop of 0.9% saline was injected into the eye before the insertion of the electrodes. The tonic hind limb extension (i.e., the hind limbs of the animals outstretched 180° to the plane of the body axis) served as the basic principle for the occurrence of seizure activity. Abolition of the hind limb tonic extensor (HLTE) component of the seizure is defined as protection.

[5] = test system: superoxide dismutase (SOD); experiment: Superoxide dismutase activity in brain homogenate of PTZ-treated mice; assay type: in vivo; settings: compared to PTZ-administered group, n = 6
Description: (§2) Brain tissue homogenates were prepared by isolating the brain (tissue) from the mice. Animals were euthanized under anesthesia by ketamine (80 mg/kg) and xylazine (5 mg/kg) after 8 h of inducing test and standard compounds. Mice’s brains (tissue) were quickly removed and weighed, and the whole brain samples were washed twice with ice-cold saline solution before being deposited in glass vials, labeled, and stored in a deep freeze (−30°C) until further use. Brain tissue samples were homogenized with a glass handheld homogenizer (PTFE coated). Tissue homogenates (10% w/v) were prepared in cold 0.1 M phosphate buffer (pH adjusted to 7.4) using a homogenizer. To test biological parameters, the supernatant from homogenates was centrifuged at 12,000 rpm for 20 min at 4°C.
Sun et al.'s approach ([…]) was used to determine Cu, Zn-SOD activity. An oxidase complex ([…]) generates superoxide radicals, which react with NBT to yield the formazan molecule in this process. In brief, a reactive was created by combining 0.1 mM xanthine, 0.1 mM EDTA, 50 mg bovine serum albumin, 25 mM NBT, and 40 mM Na2CO3 (pH 10.2). […] The sample’s absorbance was measured at 560 nm. […] The quantity of the enzyme that blocked NBT conversion to formazan by 50% was determined as one unit of SOD activity. SOD activity was measured in units per milligram of protein.

[6] = test system: GABA level; experiment: Estimation of brain GABA level; assay type: in vivo, mice; settings: 30 mg/kg p.o., 2 h after administration, compared to pentylenetetrazole-treated group
Description: as §2, with “Animals were euthanized under anesthesia by ketamine (80 mg/kg) and xylazine (5 mg/kg) after 8 h of inducing test and standard compounds.” left out
The supernatant was put on silica gel 60 F254 aluminum sheets (10 cm × 10 cm) as the stationary phase, with the mobile phase consisting of water-saturated phenol. Prior to chromatography, TLC plates were prewashed with methanol and activated in an oven at 50°C for 5 min. The 0.1 mL supernatant solutions were applied in the form of bands on TLC plates. At room temperature, ascending development was carried out in a glass chamber saturated with the mobile phase for 30 min until a length of 80 mm was reached. The TLC plates that had been created were air-dried and treated with ninhydrin. […] The method’s specificity was determined by obtaining standard GABA samples and comparing their Rf values. […]

[7] = test system: nitric oxide (NO); experiment: Nitrite/NO level (Greiss reagent) in brain homogenate of PTZ-treated mice; assay type: in vivo; settings: brain supernatant, compared to pentylenetetrazole-treated group, n = 6
Description: as §2
Greiss reagent, a solution of 0.5% sulfonamide, 2.5% phosphoric acid, and 0.05% naphthyl ethylenediamine, was used to measure nitric oxide (NO) in TSH. Greiss reagent and TSH absorbance were measured at 540 nm, and the sodium nitrite standard curve was used to calculate the quantity of nitrite ([Wills, 1996]; [Green et al., 1982]).

[8] = test system: PTZ-induced seizures; experiment: Subcutaneous pentylenetetrazole (sc-PTZ) test; assay type: in vivo, male Swiss albino mice; settings: for Minimum active dose (mg/kg) Sc-PTZ 0.5 h / Minimum active dose (mg/kg) Sc-PTZ 4 h: oral, lowest dose active in half or more of the mice, n = 6;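 as to % protection Sc-PTZ 0.5 h: percent reduction of the test group versus the control group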;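 as to % protection Sc-PTZ 4 h: percent reduction of the test group versus the control group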
[9] = test system: glutathione (GSH); experiment: Reduced glutathione level in brain of PTZ-treated mice; assay type: in vivo; settings: compared to pentylenetetrazole-treated group, n = 6
Description: as §2
The quantity of glutathione (GSH) in the brain was determined using the Sedlak and Lindsay method ([Pant et al., 2023]). In brief, brain tissue was deproteinized with an equal amount of 10% TCA and left at 4°C for 2 h. The contents were centrifuged for 15 min at 1200 rpm. The supernatant was mixed with 2 mL of 0.4 M Tris buffer (pH 8.9) containing 0.02 M EDTA (pH 8.9), and then 0.01 M DTNB was added. Finally, the mixture was diluted with 0.5 mL of distilled water to make a total volume of 3 mL, and absorbance was measured using a spectrophotometer at 412 nm, with results expressed as mg GSH/gm tissue.

[10] = test system: total antioxidant capacity (TAC); experiment: Total antioxidant capacity (FRAP) in brain tissue of PTZ-treated mice; assay type: in vivo; settings: compared to pentylenetetrazole-treated group, n = 6
Description: as §2
Total antioxidant capacity (TAC) was measured by mixing 200 μL of tissue samples with 3 mL of ferric-reducing antioxidant power (FRAP) reagent in a vortex. After incubating samples and blank tubes in a water bath for 30 min at 37°C, the absorbance of the samples was measured at 593 nm. For the standard curve, a stock solution of FeSO4.7H2O in distilled water was produced. Stock solution concentrations were 200, 400, 800, 1200, and 1600 μM. The curve results were given as mM of ferrous sulfate equivalent Fe2+/L ([Sun et al., 1988]).

[11] = test system: mice; experiment: Rotarod neurotoxicity screening; assay type: in vivo, male Swiss albino mice; settings: for Neurotoxicity (rotarod test), result in words: at the highest dose (300 mg/kg); for Neurotoxicity dose (mg/kg) 0.5 h / Neurotoxicity dose (mg/kg) 4 h: rotarod, oral doses 30, 100, 300 mg/kg
Description: The rotarod test, as described in the literature, was used to evaluate neurotoxicity (NT) in mice. In brief, six mice (one group) were trained to balance on a spinning rod (3 cm diameter and 6 rpm speed) to familiarize with the rotarod apparatus (Orchid Scientific, India). Each mouse underwent three trials to remain on the rotating rod for over 1 minute, with the experiment’s cutoff time (180 s) remaining constant. Different pre-oral (p.o.) doses of test and standard substances were administered to the trained animals.

Row | SMILES | IC50 [1] [nM] | % protection MES 0.5 h ([2]; 30 mg/kg oral) [%] | % protection MES 4 h ([2]; 30 mg/kg oral) [%] | % protection MES 0.5 h ([2]; 100 mg/kg oral) [%] | % protection MES 4 h ([2]; 100 mg/kg oral) [%] | % protection MES 0.5 h ([2]; 300 mg/kg oral) [%] | % protection MES 4 h ([2]; 300 mg/kg oral) [%] | Minimum active dose (mg/kg) MES 0.5 h [2] [mg/kg] | Minimum active dose (mg/kg) MES 4 h [2] [mg/kg] | IC50 [3] [nM] | Recovery/death ([4]; 30 mg/kg oral) | Recovery/death ([4]; 100 mg/kg oral) | Recovery/death ([4]; 300 mg/kg oral) | GABA level in the brain [6] | % protection Sc-PTZ 0.5 h ([8]; 300 mg/kg oral) [%] | % protection Sc-PTZ 4 h ([8]; 300 mg/kg oral) [%] | Minimum active dose (mg/kg) Sc-PTZ 0.5 h [8] [mg/kg] | Minimum active dose (mg/kg) Sc-PTZ 4 h [8] [mg/kg] | Neurotoxicity dose (mg/kg) 0.5 h [11] | Neurotoxicity dose (mg/kg) 4 h [11] | other results
1 | CCN(CC)CCOc1cccc(C(=O)Nc2nncs2)c1 [Compound 6d, 3-(2-(diethylamino)ethoxy)-N-(1,3,4-thiadiazol-2-yl)benzamide] | 100 ± 20 | 38.96 | 41.53 | 55.38 | 60 | 72.30 | 89.46 | 30 | 30 | 80 ± 50 | Recovery | Recovery | Recovery | significant increase in GABA levels | 70.4 | 82.88 | 30 | 30 | - (The indication - (dash) denotes a lack of action at the maximum dose supplied (300 mg/kg)) | - (The indication - (dash) denotes a lack of action at the maximum dose supplied (300 mg/kg)) | SOD activity [5]: significant increase in SOD activity; NO (nitrite) level [7]: significantly reduced NO levels; % protection Sc-PTZ 0.5 h ([8]; 30 mg/kg oral): 38.59%; % protection Sc-PTZ 4 h ([8]; 30 mg/kg oral): 46.34%; % protection Sc-PTZ 0.5 h ([8]; 100 mg/kg oral): 58.30%; % protection Sc-PTZ 4 h ([8]; 100 mg/kg oral): 66.34%; GSH level [9]: significant increase in GSH levels; TAC level (FRAP) [10]: significant increase in TAC levels; Neurotoxicity (rotarod test), result in words [11]: without any sign of neurotoxicity
2 | COc1ccc(C(=O)Nc2nncs2)cc1OCCN1CCCC1 [Compound 7c, 4-Methoxy-3-(2-(pyrrolidin-1-yl)ethoxy)-N-(1,3,4-thiadiazol-2-yl)benzamide] | 640 ± 40 |  |  | 24.61 | 32.30 | 35.38 | 49.23 | 100 | 100 | 690 ± 20 | Recovery | Recovery | Recovery |  | 35.38 | 36.75 | 300 | 300 | - (The indication - (dash) denotes a lack of action at the maximum dose supplied (300 mg/kg)) | - (The indication - (dash) denotes a lack of action at the maximum dose supplied (300 mg/kg)) | 
3 | CCN(CC)CCOc1cc(C(=O)Nc2nncs2)ccc1OC [Compound 7d, 4-Methoxy-3-(2-(diethylamino)ethoxy)-N-(1,3,4-thiadiazol-2-yl)benzamide] | 280 ± 30 | 30.76 | 40 | 41.53 | 63.07 | 61.53 | 76.92 | 30 | 30 | 480 ± 40 | Recovery | Recovery | Recovery | significant increase in GABA levels | 61.46 | 75.18 | 30 | 100 | - (The indication - (dash) denotes a lack of action at the maximum dose supplied (300 mg/kg)) | - (The indication - (dash) denotes a lack of action at the maximum dose supplied (300 mg/kg)) | NO (nitrite) level [7]: significantly reduced NO levels; % protection Sc-PTZ 0.5 h ([8]; 30 mg/kg oral): 42.43%; % protection Sc-PTZ 0.5 h ([8]; 100 mg/kg oral): 53.27%; % protection Sc-PTZ 4 h ([8]; 100 mg/kg oral): 62.85%; GSH level [9]: significant increase in GSH levels; TAC level (FRAP) [10]: significant increase in TAC levels; Neurotoxicity (rotarod test), result in words [11]: without any sign of neurotoxicity
